# Source: ChEMBL document CHEMBL1154389, “Discovery of pyrimidine benzimidazoles as Src-family selective Lck inhibitors. Part II” (Bioorg Med Chem Lett, 2009)
# Experiments:
# [1] = target: Proto-oncogene tyrosine-protein kinase Src (Homo sapiens, UniProt P12931); assay: Inhibition of SRC
# [2] = target: Tyrosine-protein kinase HCK (Homo sapiens, UniProt P08631); assay: Inhibition of HCK
# [3] = target: Tyrosine-protein kinase Lck (Homo sapiens, UniProt P06239); assay: Inhibition of LCK
# Mus musculus = assay: (§1) AUC in mouse at 20 mg/kg, po; assay type: ADME, organism-based, Plasma; parameters: dose 20 mg/kg, route oral
# [4] = Metabolic stability in mouse assessed as extraction ratio at 20 mg/kg, po; assay type: ADME, organism-based; parameters: dose 20 mg/kg, route oral; details: in vivo
# BaF3 = assay: Cytotoxicity against mouse BAF3 cells; assay type: functional, cell-based
# [5] = as §1; assay type: ADME, organism-based, Plasma; parameters: dose 20 mg/kg, route oral; details: mouse, plasma, po, 20 mg/kg
# Chain of Tyrosine-protein kinase HCK (P08631 whole entry): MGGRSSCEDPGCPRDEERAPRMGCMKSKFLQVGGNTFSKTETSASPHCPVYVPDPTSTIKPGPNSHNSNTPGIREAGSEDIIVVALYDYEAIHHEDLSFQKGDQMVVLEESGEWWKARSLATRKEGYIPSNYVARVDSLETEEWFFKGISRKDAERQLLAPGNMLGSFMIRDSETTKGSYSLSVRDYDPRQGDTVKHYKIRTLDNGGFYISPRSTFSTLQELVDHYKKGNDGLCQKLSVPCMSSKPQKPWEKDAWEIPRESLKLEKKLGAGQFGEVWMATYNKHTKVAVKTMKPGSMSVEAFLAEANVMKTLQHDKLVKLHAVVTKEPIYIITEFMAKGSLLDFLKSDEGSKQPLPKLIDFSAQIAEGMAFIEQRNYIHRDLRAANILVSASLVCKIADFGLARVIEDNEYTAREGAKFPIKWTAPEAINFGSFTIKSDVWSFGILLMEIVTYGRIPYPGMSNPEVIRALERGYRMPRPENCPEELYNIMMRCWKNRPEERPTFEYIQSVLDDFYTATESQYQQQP
# Chain of Proto-oncogene tyrosine-protein kinase Src (P12931 2-536 limits assumed): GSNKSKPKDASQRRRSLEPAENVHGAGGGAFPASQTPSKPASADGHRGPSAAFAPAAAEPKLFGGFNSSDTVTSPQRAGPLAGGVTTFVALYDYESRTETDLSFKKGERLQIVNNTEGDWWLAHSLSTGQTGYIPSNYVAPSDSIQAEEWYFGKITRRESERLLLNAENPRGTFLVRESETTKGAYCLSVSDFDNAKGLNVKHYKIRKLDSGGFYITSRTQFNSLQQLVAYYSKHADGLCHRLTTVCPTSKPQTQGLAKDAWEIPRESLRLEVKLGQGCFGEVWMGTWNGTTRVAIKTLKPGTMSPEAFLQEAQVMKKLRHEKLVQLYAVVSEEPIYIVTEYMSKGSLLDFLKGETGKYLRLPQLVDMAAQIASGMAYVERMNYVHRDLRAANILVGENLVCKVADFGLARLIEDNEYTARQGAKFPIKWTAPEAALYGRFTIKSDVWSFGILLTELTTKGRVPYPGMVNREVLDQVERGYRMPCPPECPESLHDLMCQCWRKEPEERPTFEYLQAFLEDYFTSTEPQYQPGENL
# Chain of Tyrosine-protein kinase Lck (P06239 whole entry): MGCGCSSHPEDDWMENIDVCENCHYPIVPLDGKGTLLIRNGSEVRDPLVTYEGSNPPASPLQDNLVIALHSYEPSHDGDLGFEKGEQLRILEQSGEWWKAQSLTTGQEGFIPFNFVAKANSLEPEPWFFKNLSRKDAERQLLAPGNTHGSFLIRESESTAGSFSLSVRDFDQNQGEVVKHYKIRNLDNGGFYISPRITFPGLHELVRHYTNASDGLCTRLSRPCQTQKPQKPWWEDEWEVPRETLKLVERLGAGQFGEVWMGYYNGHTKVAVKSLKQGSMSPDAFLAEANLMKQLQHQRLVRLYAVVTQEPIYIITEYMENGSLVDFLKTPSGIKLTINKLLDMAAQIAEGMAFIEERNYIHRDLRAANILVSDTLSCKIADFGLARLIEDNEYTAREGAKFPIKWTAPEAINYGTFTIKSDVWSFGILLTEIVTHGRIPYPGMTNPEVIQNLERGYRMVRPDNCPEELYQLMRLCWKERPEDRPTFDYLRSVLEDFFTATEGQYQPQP
IC50 [1] [nM],IC50 [2] [nM],IC50 [3] [nM],hepatic extraction ratio [4],AUC [5] [µM·h],Structure (SMILES),AUC (Mus musculus) [nmol·h/L],IC50 (BaF3) [nM]
32,9,4,,,CCN1CCN(Cc2ccc(C(=O)Nc3ccc(C)c(Nc4nc5ccccc5n4-c4cc(N)ncn4)c3)cc2Cl)CC1,,
,> 2500,177,,,Cc1cc(NC(=O)c2ccc(C)c(Nc3nc4ccccc4n3-c3cc(N)ncn3)c2)ccn1,,
,> 2500,715,,,Cc1ccc(NC(=O)c2ccncc2Cl)cc1Nc1nc2ccccc2n1-c1cc(N)ncn1,,
485,56,15,,,Cc1ccc(C(=O)Nc2cccc(C(F)(F)F)c2)cc1Nc1nc2ccccc2n1-c1cc(NCCCCN(C)C)ncn1,,
> 2500,> 2500,> 2500,,,Cc1ccc(NC(=O)c2cccc(C(F)(F)F)c2)cc1Nc1nc2ccccc2n1-c1cc(N2CCOCC2)ncn1,,
177,11,8,,,Cc1ccc(NC(=O)c2cc(CN3CCN(C)CC3)n(C(C)(C)C)n2)cc1Nc1nc2ccccc2n1-c1cc(N)ncn1,,
,> 2500,230,,,Cc1ccc(NC(=O)c2cccc(C(F)(F)F)c2)cc1Nc1nc2ccccc2n1-c1cc(NCCN)ncn1,,
130,20,11,,,Cc1ccc(NC(=O)c2cc(N3CCN(C)CC3)cc(C(F)(F)F)c2)cc1Nc1nc2ccccc2n1-c1cc(N)ncn1,,
1920,192,27,,,Cc1ccc(NC(=O)c2cccc(C(F)(F)F)c2)cc1Nc1nc2ccccc2n1-c1cc(NCCO)ncn1,,
> 2500,378,111,,,CCN(CC)CCNc1cc(-n2c(Nc3cc(NC(=O)c4cccc(C(F)(F)F)c4)ccc3C)nc3ccccc32)ncn1,,
71,16,11,,,CCN1CCN(c2cc(C(=O)Nc3ccc(C)c(Nc4nc5ccccc5n4-c4cc(N)ncn4)c3)cc(C(F)(F)F)c2)CC1,,
450,43,11,,,Cc1ccc(NC(=O)c2cccc(C(F)(F)F)c2)cc1Nc1nc2ccccc2n1-c1cc(N)ncn1,,
128,31,6,,,Cc1ccc(NC(=O)c2cccc(C(F)(F)F)c2)cc1Nc1nc2ccccc2n1-c1cc(NCCCN2CCN(C)CC2)ncn1,,
> 2500,> 2500,168,,,Cc1ccc(NC(=O)c2cccc(C(F)(F)F)c2)cc1Nc1nc2ccccc2n1-c1cc(NC2CCN(C)CC2)ncn1,,
,> 2500,63,,,Cc1ccc(C(=O)Nc2cccc(Cl)c2)cc1Nc1nc2ccccc2n1-c1cc(N)ncn1,,
,1870,19,,,Cc1cccc(NC(=O)c2ccc(C)c(Nc3nc4ccccc4n3-c3cc(NCCCN4CCN(C)CC4)ncn3)c2)c1,,
,> 2500,43,,,Cc1ccc(C(=O)Nc2cccc(Br)c2)cc1Nc1nc2ccccc2n1-c1cc(N)ncn1,,
,> 2500,1080,,,Cc1ccc(C(=O)Nc2ccccc2)cc1Nc1nc2ccccc2n1-c1cc(N)ncn1,,
233,27,24,,,Cc1ccc(NC(=O)c2cc(OC3CCN(C)CC3)cc(C(F)(F)F)c2)cc1Nc1nc2ccccc2n1-c1cc(N)ncn1,,
,> 2500,59,,,Cc1ccc(C(=O)Nc2cccc(C(F)(F)F)c2)cc1Nc1nc2ccccc2n1-c1cc(N)ncn1,,
1690,405,135,,,COCCNc1cc(-n2c(Nc3cc(NC(=O)c4cccc(C(F)(F)F)c4)ccc3C)nc3ccccc32)ncn1,2687,
> 2500,> 2500,2400,,,Cc1ccc(C(=O)Nc2cccc(C(F)(F)F)c2)cc1Nc1nc2ccccc2n1-c1ncnc(N)c1C,,
,345,13,,,Cc1ccc(NC(=O)c2cccc(C(F)(F)F)c2)cc1Nc1nc2ccccc2n1-c1cc(NCCCCN)ncn1,,
274,475,18,,,CCN(CC)CCCCNc1cc(-n2c(Nc3cc(C(=O)Nc4cccc(C(F)(F)F)c4)ccc3C)nc3ccccc32)ncn1,,
,> 2500,1370,,,Cc1ccc(C(=O)Nc2cccc(C(F)(F)F)c2)cc1Nc1nc2ccccc2n1-c1cc(NCCC#N)ncn1,,

IC50 [1] [nM],IC50 [2] [nM],IC50 [3] [nM],hepatic extraction ratio [4],AUC [5] [µM·h],Structure (SMILES),AUC (Mus musculus) [nmol·h/L],IC50 (BaF3) [nM]
,> 2500,> 2500,,,Cc1ccc(C(=O)Nc2cccc(C(N)=O)c2)cc1Nc1nc2ccccc2n1-c1cc(N)ncn1,,
1540,245,70,,,Cc1cccc(C(=O)Nc2ccc(C)c(Nc3nc4ccccc4n3-c3cc(N)ncn3)c2)c1,,
165,49,26,,,Cc1ccc(NC(=O)c2cccc(C(F)(F)F)c2)cc1Nc1nc2ccccc2n1-c1cc(NCCCC2COCCN2)ncn1 (stereo not drawn),,
1650,475,132,,,Cc1ccc(NC(=O)c2cccc(Cl)c2)cc1Nc1nc2ccccc2n1-c1cc(N)ncn1,,
1720,450,71,0.383,,Cc1ccc(NC(=O)c2cccc(C(F)(F)F)c2)cc1Nc1nc2ccccc2n1-c1cc(N[C@H]2CC[C@H](N)CC2)ncn1,,
> 2500,> 2500,2030,,,COc1cc(-n2c(Nc3cc(NC(=O)c4cccc(C(F)(F)F)c4)ccc3C)nc3ccccc32)ncn1,,
530,121,58,,,Cc1ccc(NC(=O)c2cc(Cl)cc(Cl)c2)cc1Nc1nc2ccccc2n1-c1cc(N)ncn1,,
305,69,29,,,Cc1ccc(NC(=O)c2cccc(C(F)(F)F)c2)cc1Nc1nc2ccccc2n1-c1cc(NCCN2CCN(C)CC2)ncn1,,
,139,22,,,Cc1ccc(C(=O)Nc2cccc(C(C)(C)C)c2)cc1Nc1nc2ccccc2n1-c1cc(N)ncn1,,
458,130,11,,,Cc1ccc(C(=O)Nc2cccc(C(F)(F)F)c2)cc1Nc1nc2ccccc2n1-c1cc(NCCN2CCN(C)CC2)ncn1,,
916,84,43,,,Cc1ccc(NC(=O)c2ccc(C(C)(C)C)s2)cc1Nc1nc2ccccc2n1-c1cc(N)ncn1,,6
16500,3830,1160,,,Cc1ccc(NC(=O)c2cccc(C(F)(F)F)c2)cc1Nc1nc2ccccc2n1-c1cc(Cl)ncn1,,
,1810,20,,,CCN(CC)CCCCNc1cc(-n2c(Nc3cc(C(=O)Nc4cccc(C)c4)ccc3C)nc3ccccc32)ncn1,,
> 2500,805,38,,,Cc1ccc(NC(=O)c2cccc(C(F)(F)F)c2)cc1Nc1nc2ccccc2n1-c1cc(NCCC2CCCN2)ncn1 (stereo not drawn),,
,54,12,,,Cc1ccc(C(=O)Nc2cccc(C(F)(F)F)c2)cc1Nc1nc2ccccc2n1-c1ncnc(NCCCN2CCN(C)CC2)n1,,
,46,,,,Cc1ccc(NC(=O)c2ccncc2C(C)(C)C)cc1Nc1nc2ccccc2n1-c1cc(N)ncn1,,
,1960,23,,,Cc1ccc(NC(=O)c2cccc(C(F)(F)F)c2)cc1Nc1nc2ccccc2n1-c1cc(NCCCN)ncn1,,
494,260,18,,,Cc1ccc(C(=O)Nc2cccc(C(F)(F)F)c2)cc1Nc1nc2ccccc2n1-c1cc(NCCCN2CCN(C)CC2)ncn1,,
,> 2500,22,,,Cc1cccc(NC(=O)c2ccc(C)c(Nc3nc4ccccc4n3-c3cc(NCCCCN(C)C)ncn3)c2)c1,,
97,430,12,< 0.3,0.368,CCN(CC)CCCCNc1cc(-n2c(Nc3cc(NC(=O)c4cccc(C(F)(F)F)c4)ccc3C)nc3ccccc32)ncn1,,
,> 2500,90,,,COc1cccc(NC(=O)c2ccc(C)c(Nc3nc4ccccc4n3-c3cc(N)ncn3)c2)c1,,
,> 2500,52,,,Cc1cccc(NC(=O)c2ccc(C)c(Nc3nc4ccccc4n3-c3cc(N)ncn3)c2)c1,,
139,65,5,,,Cc1ccc(NC(=O)c2cccc(C(F)(F)F)c2)cc1Nc1nc2ccccc2n1-c1cc(NCCCCN(C)C)ncn1,,
2370,917,204,,,Cc1ccc(NC(=O)c2cccc(C(F)(F)F)c2)cc1Nc1nc2ccccc2n1-c1cc(NCCc2ccccn2)ncn1,,
,> 2500,17,,,Cc1ccc(C(=O)Nc2cccc(OC(F)F)c2)cc1Nc1nc2ccccc2n1-c1cc(N)ncn1,,

Structure (SMILES),IC50 [1] [nM],IC50 [2] [nM],IC50 [3] [nM],hepatic extraction ratio [4],AUC [5] [µM·h],AUC (Mus musculus) [nmol·h/L],IC50 (BaF3) [nM]
Cc1cn(-c2cc(NC(=O)c3ccc(C)c(Nc4nc5ccccc5n4-c4cc(N)ncn4)c3)cc(C(F)(F)F)c2)cn1,,904,238,,,,
Cc1ccc(NC(=O)c2cc(C3CC3)n[nH]2)cc1Nc1nc2ccccc2n1-c1cc(N)ncn1,7360,446,120,,,,
Cc1cccc(NC(=O)c2ccc(C)c(Nc3nc4ccccc4n3-c3cc(NCCN4CCN(C)CC4)ncn3)c2)c1,,> 2500,38,,,,
Cc1ccc(C(=O)Nc2cccc(C(C)C)c2)cc1Nc1nc2ccccc2n1-c1cc(N)ncn1,,151,30,,,,
Cc1ccc(NC(=O)c2cc(C(C)(C)C)nn2C)cc1Nc1nc2ccccc2n1-c1cc(N)ncn1,7190,844,316,,,,
Cc1ccc(C(=O)Nc2cccc3cnccc23)cc1Nc1nc2ccccc2n1-c1cc(N)ncn1,,> 2500,616,,,,
